Measured values published in patent US10130096B2, “Method for protecting useful plants or plant propagation material” (SYNGENTA PARTICIPATIONS AG, priority 2011, dated 2018).

Tested on: Mycosphaerella arachidis (Cercospora arachidicola)
Test: Mycosphaerella arachidis liquid culture growth inhibition
Format: cell-based
Settings: photometric, 4-5 days after application, read-out: control on Mycosphaerella arachidis
Procedure: (§1) Conidia of the fungus from cryogenic storage are directly mixed into nutrient broth (PDB potato dextrose broth). After placing a (DMSO) solution of test compound into a microtiter plate (96-well format), the nutrient broth containing the fungal spores is added.

Structure (SMILES)	inhibition of growth at 200 ppm [%]
OB1OCc2cc(Cl)ccc21 [Compound 1, 5-Chloro-3H-benzo[c][1,2]oxaborol-1-ol]	≥ 80
CCC(N)COB1OCc2cc(Cl)ccc21 (centres unmarked) [Compound 2, 1-(5-Chloro-3H-benzo[c][1,2]oxaborol-1-yloxymethyl)-propylamine]	≥ 80
CNCCOB1OCc2cc(Cl)ccc21 [Compound 4, [2-(5-Chloro-3H-benzo[c][1,2]oxaborol-1-yloxy)-ethyl]-methyl-amine]	≥ 80
NCCCOB1OCc2cc(Cl)ccc21 [Compound 5, 3-(5-Chloro-3H-benzo[c][1,2]oxaborol-1-yloxy)-propylamine]	≥ 80
O=[N+]([O-])c1ccc2c(c1)B(O)OC2 [Compound 7, 6-Nitro-3H-benzo[c][1,2]oxaborol-1-ol]	≥ 80
OB1OCc2cc(F)ccc21 [Compound 8, 5-Fluoro-3H-benzo[c][1,2]oxaborol-1-ol]	≥ 80

Tested on: Alternaria solani
Test: Alternaria solani on tomato plants
Format: in vivo
Settings: 4-week old tomato plants cv. Roter Gnom, spray, inoculated two days after application
Procedure: 4-week old tomato plants cv. Roter Gnom are sprayed in a spray chamber with the formulated test compound diluted in water. The test plants are inoculated by spraying them with a spore suspension two days after application. The inoculated test plants are incubated at 22/18° C. (day/night) and 95% rh in a greenhouse and the percentage leaf area covered by disease is assessed when an appropriate level of disease appears on untreated check plants (5-7 days after application).

Structure (SMILES)	pest or weed control at 60 ppm [%]
OB1OCc2cc(Cl)ccc21 [Compound 1, 5-Chloro-3H-benzo[c][1,2]oxaborol-1-ol]	≥ 60
CCC(N)COB1OCc2cc(Cl)ccc21 (centres unmarked) [Compound 2, 1-(5-Chloro-3H-benzo[c][1,2]oxaborol-1-yloxymethyl)-propylamine]	≥ 60
NCCCOB1OCc2cc(Cl)ccc21 [Compound 5, 3-(5-Chloro-3H-benzo[c][1,2]oxaborol-1-yloxy)-propylamine]	≥ 60
O=[N+]([O-])c1ccc2c(c1)B(O)OC2 [Compound 7, 6-Nitro-3H-benzo[c][1,2]oxaborol-1-ol]	≥ 60
OB1OCc2cc(F)ccc21 [Compound 8, 5-Fluoro-3H-benzo[c][1,2]oxaborol-1-ol]	≥ 60

Tested on: Glomerella lagenarium (Colletotrichum lagenarium)
Test: Glomerella lagenarium liquid culture growth inhibition
Format: cell-based
Settings: Colletotrichum orbiculare, photometric, 3-4 days after application, read-out: control on Glomerella lagenarium
Procedure: as §1

Structure (SMILES)	inhibition of growth at 200 ppm [%]
OB1OCc2cc(Cl)ccc21 [Compound 1, 5-Chloro-3H-benzo[c][1,2]oxaborol-1-ol]	≥ 80
CCC(N)COB1OCc2cc(Cl)ccc21 (centres unmarked) [Compound 2, 1-(5-Chloro-3H-benzo[c][1,2]oxaborol-1-yloxymethyl)-propylamine]	≥ 80
CNCCOB1OCc2cc(Cl)ccc21 [Compound 4, [2-(5-Chloro-3H-benzo[c][1,2]oxaborol-1-yloxy)-ethyl]-methyl-amine]	≥ 80
NCCCOB1OCc2cc(Cl)ccc21 [Compound 5, 3-(5-Chloro-3H-benzo[c][1,2]oxaborol-1-yloxy)-propylamine]	≥ 80
O=[N+]([O-])c1ccc2c(c1)B(O)OC2 [Compound 7, 6-Nitro-3H-benzo[c][1,2]oxaborol-1-ol]	≥ 80
OB1OCc2cc(F)ccc21 [Compound 8, 5-Fluoro-3H-benzo[c][1,2]oxaborol-1-ol]	≥ 80

Tested on: Pythium ultimum
Test: Pythium ultimum on Cotton/Pouch
Format: in vivo
Settings: Globisporangium ultimum, 168 h, cotton, pouch, 7 days at 17° C.
Excerpt: A spore/mycelium suspension is pipetted into the pouch simultaneously.

Structure (SMILES)	pest or weed control at 20 ppm [%]
OB1OCc2cc(Cl)ccc21 [Compound 1, 5-Chloro-3H-benzo[c][1,2]oxaborol-1-ol]	≥ 50
CCC(N)COB1OCc2cc(Cl)ccc21 (centres unmarked) [Compound 2, 1-(5-Chloro-3H-benzo[c][1,2]oxaborol-1-yloxymethyl)-propylamine]	≥ 50
CNCCOB1OCc2cc(Cl)ccc21 [Compound 4, [2-(5-Chloro-3H-benzo[c][1,2]oxaborol-1-yloxy)-ethyl]-methyl-amine]	≥ 50
NCCCOB1OCc2cc(Cl)ccc21 [Compound 5, 3-(5-Chloro-3H-benzo[c][1,2]oxaborol-1-yloxy)-propylamine]	≥ 50
O=[N+]([O-])c1ccc2c(c1)B(O)OC2 [Compound 7, 6-Nitro-3H-benzo[c][1,2]oxaborol-1-ol]	≥ 50
OB1OCc2cc(F)ccc21 [Compound 8, 5-Fluoro-3H-benzo[c][1,2]oxaborol-1-ol]	≥ 50

Tested on: Monographella nivalis (Microdochium nivale)
Test: Monographella nivalis liquid culture growth inhibition
Format: cell-based
Settings: photometric, 4-5 days after application, read-out: control on Monographella nivalis
Procedure: as §1, with “added. The test plates are incubated at 24° C. and the inhibition of growth is determined photometrically 4-5 days after application.” for “added.”

Structure (SMILES)	inhibition of growth at 200 ppm [%]
OB1OCc2cc(Cl)ccc21 [Compound 1, 5-Chloro-3H-benzo[c][1,2]oxaborol-1-ol]	≥ 80
CCC(N)COB1OCc2cc(Cl)ccc21 (centres unmarked) [Compound 2, 1-(5-Chloro-3H-benzo[c][1,2]oxaborol-1-yloxymethyl)-propylamine]	≥ 80
CNCCOB1OCc2cc(Cl)ccc21 [Compound 4, [2-(5-Chloro-3H-benzo[c][1,2]oxaborol-1-yloxy)-ethyl]-methyl-amine]	≥ 80
NCCCOB1OCc2cc(Cl)ccc21 [Compound 5, 3-(5-Chloro-3H-benzo[c][1,2]oxaborol-1-yloxy)-propylamine]	≥ 80
O=[N+]([O-])c1ccc2c(c1)B(O)OC2 [Compound 7, 6-Nitro-3H-benzo[c][1,2]oxaborol-1-ol]	≥ 80
OB1OCc2cc(F)ccc21 [Compound 8, 5-Fluoro-3H-benzo[c][1,2]oxaborol-1-ol]	≥ 80

Tested on: Pseudoperonospora cubensis
Test: Pseudoperonospora cubensis on Cucumber/Pouch
Format: in vivo
Settings: 60 ppm; cucumber, pouch, inoculated 8 days after sowing, 7 days incubation
Excerpt: 8 days after sowing cucumber plants were inoculated by spraying a spore suspension on the test plants.

Structure (SMILES)	control on Pseudoperonospora cubensis
NCCCOB1OCc2cc(Cl)ccc21 [Compound 5, 3-(5-Chloro-3H-benzo[c][1,2]oxaborol-1-yloxy)-propylamine]	at least 50%

Tested on: Pythium ultimum
Test: Example B-5: seed treatment against Pythium ultimum on cotton
Format: in vivo
Settings: Globisporangium ultimum, rate of 200 g/100 kg seeds, infested soil, number of germinated, healthy plants
Procedure: The trial is kept for 1 week in a growth room at 20° C. and darkness. After this period the trial is transferred to a greenhouse where a temperature of 21° C. and a 14 h light period is provided until the trial is finished. The following assessments are made: number of germinated, healthy plants. Each number is determined for 150 seeds per treatment (3 replicates a 50 seeds).

Structure (SMILES)	pest or weed control at 200 g/100 kg seeds [%]
OB1OCc2cc(Cl)ccc21 [Compound 1, 5-Chloro-3H-benzo[c][1,2]oxaborol-1-ol]	≥ 50
CCC(N)COB1OCc2cc(Cl)ccc21 (centres unmarked) [Compound 2, 1-(5-Chloro-3H-benzo[c][1,2]oxaborol-1-yloxymethyl)-propylamine]	≥ 50
NCCCOB1OCc2cc(Cl)ccc21 [Compound 5, 3-(5-Chloro-3H-benzo[c][1,2]oxaborol-1-yloxy)-propylamine]	≥ 50
OB1OCc2cc(F)ccc21 [Compound 8, 5-Fluoro-3H-benzo[c][1,2]oxaborol-1-ol]	≥ 50

Tested on: Botryotinia fuckeliana (Botrytis cinerea)
Test: Botryotinia fuckeliana liquid culture growth inhibition
Format: cell-based
Settings: photometric, 3-4 days after application, read-out: control on Botryotinia fuckeliana
Procedure: Conidia of the fungus from cryogenic storage are directly mixed into nutrient broth (Vogels broth). After placing a (DMSO) solution of test compound into a microtiter plate (96-well format), the nutrient broth containing the fungal spores is added.

Structure (SMILES)	inhibition of growth at 200 ppm [%]
OB1OCc2cc(Cl)ccc21 [Compound 1, 5-Chloro-3H-benzo[c][1,2]oxaborol-1-ol]	≥ 80
CCC(N)COB1OCc2cc(Cl)ccc21 (centres unmarked) [Compound 2, 1-(5-Chloro-3H-benzo[c][1,2]oxaborol-1-yloxymethyl)-propylamine]	≥ 80
CNCCOB1OCc2cc(Cl)ccc21 [Compound 4, [2-(5-Chloro-3H-benzo[c][1,2]oxaborol-1-yloxy)-ethyl]-methyl-amine]	≥ 80
NCCCOB1OCc2cc(Cl)ccc21 [Compound 5, 3-(5-Chloro-3H-benzo[c][1,2]oxaborol-1-yloxy)-propylamine]	≥ 80
OB1OCc2cc(F)ccc21 [Compound 8, 5-Fluoro-3H-benzo[c][1,2]oxaborol-1-ol]	≥ 80

Tested on: Puccinia recondita
Test: Puccinia recondita on Wheat/Pouch
Format: in vivo
Settings: 20 ppm; wheat, pouch, inoculated 8 days after sowing, 8 days incubation
Procedure: 8 days after sowing wheat plants were inoculated by spraying a spore suspension on the test plants. After an incubation period of 8 days at 24° C./22° C.

Structure (SMILES)	control on Puccinia recondita
O=[N+]([O-])c1ccc2c(c1)B(O)OC2 [Compound 7, 6-Nitro-3H-benzo[c][1,2]oxaborol-1-ol]	at least 50%

Tested on: Pythium ultimum
Test: Pythium ultimum liquid culture growth inhibition
Format: cell-based
Settings: Globisporangium ultimum, photometric, 2-3 days after application, read-out: control on Pythium ultimum
Procedure: as §1, with “Mycelia fragments and oospores of a newly grown liquid culture” for “Conidia”, “fungus” for “fungus from cryogenic storage”, “mycelia/spore mixture” for “spores”

Structure (SMILES)	inhibition of growth at 200 ppm [%]
OB1OCc2cc(Cl)ccc21 [Compound 1, 5-Chloro-3H-benzo[c][1,2]oxaborol-1-ol]	≥ 80
CCC(N)COB1OCc2cc(Cl)ccc21 (centres unmarked) [Compound 2, 1-(5-Chloro-3H-benzo[c][1,2]oxaborol-1-yloxymethyl)-propylamine]	≥ 80
CNCCOB1OCc2cc(Cl)ccc21 [Compound 4, [2-(5-Chloro-3H-benzo[c][1,2]oxaborol-1-yloxy)-ethyl]-methyl-amine]	≥ 80
NCCCOB1OCc2cc(Cl)ccc21 [Compound 5, 3-(5-Chloro-3H-benzo[c][1,2]oxaborol-1-yloxy)-propylamine]	≥ 80
O=[N+]([O-])c1ccc2c(c1)B(O)OC2 [Compound 7, 6-Nitro-3H-benzo[c][1,2]oxaborol-1-ol]	≥ 80
OB1OCc2cc(F)ccc21 [Compound 8, 5-Fluoro-3H-benzo[c][1,2]oxaborol-1-ol]	≥ 80

Tested on: Thanatephorus cucumeris (Rhizoctonia solani)
Test: Thanatephorus cucumeris liquid culture growth inhibition
Format: cell-based
Settings: photometric, 3-4 days after application, read-out: control on Thanatephorus cucumeris
Procedure: Mycelia fragments of a newly grown liquid culture of the fungus are directly mixed into nutrient broth (PDB potato dextrose broth). After placing a (DMSO) solution of the test compounds into a microtiter plate (96-well format), the nutrient broth containing the fungal material is added. The test plates are incubated at 24° C. and the inhibition of growth is determined photometrically 3-4 days after application.

Structure (SMILES)	inhibition of growth at 200 ppm [%]
OB1OCc2cc(Cl)ccc21 [Compound 1, 5-Chloro-3H-benzo[c][1,2]oxaborol-1-ol]	≥ 80
CCC(N)COB1OCc2cc(Cl)ccc21 (centres unmarked) [Compound 2, 1-(5-Chloro-3H-benzo[c][1,2]oxaborol-1-yloxymethyl)-propylamine]	≥ 80
CNCCOB1OCc2cc(Cl)ccc21 [Compound 4, [2-(5-Chloro-3H-benzo[c][1,2]oxaborol-1-yloxy)-ethyl]-methyl-amine]	≥ 80
NCCCOB1OCc2cc(Cl)ccc21 [Compound 5, 3-(5-Chloro-3H-benzo[c][1,2]oxaborol-1-yloxy)-propylamine]	≥ 80
OB1OCc2cc(F)ccc21 [Compound 8, 5-Fluoro-3H-benzo[c][1,2]oxaborol-1-ol]	≥ 80

Tested on: Fusarium culmorum
Test: Fusarium culmorum liquid culture growth inhibition
Format: cell-based
Settings: photometric, 3-4 days after application, read-out: control on Fusarium culmorum
Procedure: Conidia of the fungus from cryogenic storage are directly mixed into nutrient broth (PDB potato dextrose broth). After placing a (DMSO) solution of test compound into a microtiter plate (96-well format), the nutrient broth containing the fungal spores is added. The test plates are incubated at 24° C. and the inhibition of growth is determined photometrically 3-4 days after application.

Structure (SMILES)	inhibition of growth at 200 ppm [%]
OB1OCc2cc(Cl)ccc21 [Compound 1, 5-Chloro-3H-benzo[c][1,2]oxaborol-1-ol]	≥ 80
CCC(N)COB1OCc2cc(Cl)ccc21 (centres unmarked) [Compound 2, 1-(5-Chloro-3H-benzo[c][1,2]oxaborol-1-yloxymethyl)-propylamine]	≥ 80
CNCCOB1OCc2cc(Cl)ccc21 [Compound 4, [2-(5-Chloro-3H-benzo[c][1,2]oxaborol-1-yloxy)-ethyl]-methyl-amine]	≥ 80
NCCCOB1OCc2cc(Cl)ccc21 [Compound 5, 3-(5-Chloro-3H-benzo[c][1,2]oxaborol-1-yloxy)-propylamine]	≥ 80
OB1OCc2cc(F)ccc21 [Compound 8, 5-Fluoro-3H-benzo[c][1,2]oxaborol-1-ol]	≥ 80
